In a melting point compilation (Tetko et al.; mined from patent text by program, amines drawn as free bases though some values may be those of a salt):

Row | SMILES | melting point
1 | COc1cccc(Oc2ccc(NC(C)=O)cc2)c1 | 103 to 105 °C
2 | C=CCOC(=O)C(C#N)=C(SC)SC | 36 to 37.5 °C
3 | COc1cc(N)c(Cl)cc1C(=O)N[C@@H]1CCN(CCCOc2ccc(F)cc2)C[C@H]1F (relative stereo) | 125 °C
4 | O=c1c(Cc2ccccc2)cn(-c2ccc(F)cc2)c2ncccc12 | 208 to 209 °C
5 | C=Cc1cnc(-c2ncccn2)nc1 | 150 °C
6 | c1ccc(-c2nn3c(c2-c2ccc4nsnc4c2)CCC3)nc1 | 184 to 186 °C
7 | CC(=O)n1c(=O)n(-c2ccc(Cl)cc2)c(=O)n1C(C)=O | 148 to 150 °C
8 | Cc1[nH]c(=O)[nH]c1C(N)=O | > 300 °C
9 | CCOC(=O)c1nnc2ccc(NC(=O)c3ccccc3OC(C)=O)cc2c1O | 240 to 242 °C
10 | O=C(CNc1ccccc1)Nc1cc(F)c(F)cc1C(=O)O | 124 to 126 °C
11 | CNc1nc(-c2ccc(F)cc2)c(I)c(C(C)C)n1 | 195 to 196 °C
12 | CCCCN(Cc1ccc(-c2ccccc2-c2nnn[nH]2)cc1)c1ncn(C)c1C(=O)OCC | 203 to 204 °C
13 | CCCCS(=O)(=O)c1ccc2nn(-c3cc(C(C)(C)CC(C)(C)C)cc(C(C)(C)c4ccccc4)c3O)nc2c1 | 118 °C
14 | CCOC(=O)c1cc(=O)c2ccc([N+](=O)[O-])c(C)c2o1 | 120 °C
15 | CCCC(=O)N(Cc1ccc(-c2ccccc2-c2nc(=O)s[nH]2)cc1)c1sc(C)cc1C(=O)OC | 131 to 132 °C
16 | CC(C)(C)c1ccc2ncc(C(=O)NCc3ccc(Cl)cc3)c(O)c2c1 | 266 °C
17 | COc1ccc(C(=O)O)c(-c2ccc(C(F)(F)F)cc2)c1 | 232 to 234 °C
18 | O=C(O)Cn1c(=O)oc2cc(-c3ccccc3)c(Cl)cc21 | 200 to 203 °C
19 | CCOC(=O)C1=C(C)N(CCOC(=O)c2ccccc2)C(=O)NC1c1ccc(OC)cc1 (configuration not stated) | 75 °C
20 | CC12CCC(=O)C=C1CCC1C2=CCC2(C)C1CCC2(O)C(=O)CCl (configuration not stated) | 227 to 228 °C
21 | COC(=O)Cc1ccc(C(=O)OC)cn1 | 56 to 57 °C
22 | O=C(O)C(O)c1ccc(-n2cccc2)cc1 (configuration not stated) | 168 °C

Row | SMILES | melting point
23 | CCn1ncc2c1ncc1c(SC)nc3cc(C)nn3c12 | 168 to 169 °C
24 | CC(C)(C)c1cc(C(=O)COc2ccc(C(=O)O)c(O)c2)cc(C(C)(C)C)c1O | 164 to 165 °C
25 | O=C(Cc1cccc(Oc2ccccc2)c1)Nc1cc(Cl)c(Cl)cc1[N+](=O)[O-] | 135 to 137 °C
26 | O=c1c(Cc2ccccc2)c2n(c(=O)n1CCCCSc1cccc3nccn13)CCCS2(=O)=O | 53 to 54 °C
27 | Cc1ccccc1N1CCN(S(=O)(=O)CC23CCC(CC2=O)C3(C)C)CC1 (configuration not stated) | 112 to 114 °C
28 | CS(=O)(=O)CCNC(=O)c1cccc(-c2ccc3c(c2)C(c2ccc(Cl)cc2Cl)CC3)c1 (configuration not stated) | 193 to 194 °C
29 | N#CC[C@H](NC(=O)c1ccc2ccccc2c1)C(=O)O | 95 to 100 °C
30 | Cc1cn(C2CC(ON)C(CO)O2)c(=O)[nH]c1=O (configuration not stated) | 81 °C
31 | CCOC(=O)c1cccc(O)c1C | 58 to 60 °C
32 | CC(C)c1ccc(OCC(=O)N2C(=O)OC[C@H]2Cc2ccccc2)cc1 | 104 to 105 °C
33 | CCOC[C@]1(OC)CC[C@H]2[C@@H]3CCC4=CC(=O)CCC4=C3[C@@H](c3ccc(C(C)=O)cc3)C[C@@]21C | 134 to 137 °C
34 | COc1cc(C)c(C(O)c2c(O)ccc(Cl)c2C)c(OC)c1OC (configuration not stated) | 140 to 142 °C
35 | Clc1cc(I)cnc1Cl | 55 to 57 °C
36 | CN(c1cccc2cc(-c3nc(CCl)cs3)[nH]c12)S(=O)(=O)c1cccs1 | 153 to 154 °C
37 | CN1CCC(c2c[nH]c3ccc(OCc4ccccc4)cc23)CC1 | 163 to 164 °C
38 | C=C(C)C(=O)Nc1ccc2ccc(Cl)nc2n1 | 182 °C
39 | CC(C)NC1=NS(=O)(=O)c2cc(Br)cc(Br)c2N1 | 306 to 311 °C
40 | Cc1ccc2nc(C3(c4ccc(S(N)(=O)=O)cc4)C=C(C(F)(F)F)NN3)oc2c1 (configuration not stated) | 260 to 261 °C
41 | CC(=O)N1CCN(N=Cc2ccc(F)cc2)CC1 | 88 to 90 °C
42 | CC(=O)Nc1nnc(C(F)(F)C(Cl)Cl)s1 | 182 to 184 °C
43 | CCC(=O)Nc1cccc(-c2c(C)c(NC(=O)CC(C)(C)C)c(C)c3c2OCC3c2ccc(C(C)C)cc2)c1 (configuration not stated) | 237 to 239 °C
44 | CCN1CCC(=O)N(c2ccccc2F)C1=S | 101 to 104 °C

More lines, now with the values ahead:

Row | melting point | SMILES
45 | 131 to 139 °C | Oc1ccccc1Oc1ncc(Cl)cn1
46 | 107 °C | COc1ccc(C#CC(=Nc2ccc(OC)cc2)N2CCN(Cc3ccc(C)cc3)CC2)cc1
47 | 137 to 139 °C | COc1cc(NCCCCCCN2CCCN(C)CC2)c2nccc(C)c2c1
48 | 135 to 136 °C | CC(C)(C)Oc1ccc(C(N)=O)cc1
49 | 83 to 85 °C | O=S(=O)(CCl)Nc1ccc(F)cc1Cl
50 | 67 to 68 °C | Cc1c(OCC(F)(F)C(F)F)ccnc1CO
51 | 76 °C | COC(=O)C(C)(C)CCCN1CCN(C(=O)C=Cc2ccccc2)CC1
52 | 96 to 98 °C | O=C1OC(=O)c2cc(OCCCOc3ccccc3)ccc21
53 | 267 to 269 °C | COc1ccc(C=Cn2ncc3ccccc3c2=O)cc1
54 | 132 °C | O=C(c1ccncc1)c1cnc2cc(Cl)ccc2c1Cl
55 | 237 °C | CC(=O)Nc1cnc2cccc(Oc3cc(-c4ccc(C(F)(F)F)cc4)ncn3)c2n1
56 | 141 to 144 °C | COC1=NS(=O)(=O)N(Cc2ccccc2)C(N)=N1
57 | 123 to 125 °C | CC(C)CC(NC(=O)Cc1ccc2ccccc2c1)C(=O)NC(Cc1ccccc1)C(=O)CSCc1ccco1 (configuration not stated)
58 | 214 to 216 °C | CC(=O)SCC(Cc1ccccc1)C(=O)Nc1cc(C(=O)O)ccc1C (configuration not stated)
59 | 59 to 61 °C | CC(C)CCSC1=C(O)CC(C)(C)CC1=O
60 | 128 to 129 °C | C[C@@H](n1cnn(-c2ccc(OCC(F)(F)C(F)(F)F)cc2)c1=O)[C@@]1(c2ccc(F)cc2F)CO1
61 | 103 to 105 °C | c1cc(CN2CCCCC2)cc(OCCCNc2nccc3ccccc23)c1
62 | 153 to 154 °C | O=c1c(O)c(C#Cc2ccccc2)oc2ccccc12
63 | 144 to 145 °C | NC(=O)C1CCc2ccc([N+](=O)[O-])cc21 (configuration not stated)
64 | 139 to 140 °C | CCCCc1cn2nc3c(c(=O)n(CCC)c(=O)n3Cc3ccccc3)c2n1C

Row | melting point | SMILES
65 | 156 to 158 °C | Cc1cc(C2(C(F)(F)C(F)(F)C(F)(F)F)CC(c3ccc(Cl)cc3)=NO2)ccc1NC(=O)c1cccc(I)c1C(=O)NC(C)C (configuration not stated)
66 | 55 to 58 °C | CC(C)Oc1cc(-n2c(Cl)nc(C(F)(F)C(F)(F)F)cc2=O)c(F)cc1Cl
67 | 92 to 93 °C | CC(=O)OCC(O)(CN(C)S(=O)(=O)c1ccc(Cl)c(C)c1)c1cccc(Cl)n1 (configuration not stated)
68 | 158 to 160 °C | CC(=O)N1CCC(CCC(=O)c2ccc(N(C)C)cc2)CC1
69 | 118 °C | O=C(NC(Cc1c[nH]c2ccccc12)C(=O)OCc1cccc(C(F)(F)F)c1)c1ccccc1 (configuration not stated)
70 | 162 to 170 °C | Cc1ccc(S(=O)(=O)Oc2cccc(NC(=O)NS(=O)(=O)c3ccccc3)c2)cc1
71 | 97 to 99 °C | CCOC(=O)c1c(C(F)(F)F)ncc(C(=O)O)c1OC(C)C
72 | 128 to 130 °C | COCCCOc1ccc(/C=C(\C)C(=O)O)c(Oc2ncc(Cl)cc2Cl)c1
73 | 120 to 123 °C | COc1cc(C=C[N+](=O)[O-])ccc1OCc1cccc2ccccc12
74 | 66 to 67 °C | CC(C)(C)OC(=O)N1CCC[C@H](O)[C@@H]1c1ccccc1
75 | 111 to 112 °C | COc1ccc(-c2ccc(Cl)nn2)c(OCC2CO2)c1 (configuration not stated)
76 | 108 °C | CCCCCCOC(=O)COc1ccc(F)c(C(N)=O)c1F
77 | 102 to 105 °C | COc1nc2cc([N+](=O)[O-])c(C)c(C(=O)N(C)CC(=O)OC(C)(C)C)c2nc1OC
78 | 71 to 75 °C | CCCc1c(OCCOCCOc2ccc3ccc(OCCCC(=O)O)cc3c2C(C)=O)ccc(C(C)=O)c1O
79 | 141 to 143 °C | CCCc1nc2c(N)nc3cc(OCCN4CCCCC4)ccc3c2s1
80 | 121 to 123 °C | COC1=CC(Cl)(OC)NC(C(O)CC(=O)Nc2ccccc2)=N1 (configuration not stated)
81 | 207 to 208 °C | O=c1c(-c2cccc(C(F)(F)F)c2)c[nH]n1-c1cccc(C(F)(F)F)c1
82 | 103 to 106 °C | CCC1(CCCCN2CCN(c3ccc(C)c(Cl)c3)CC2)C(=O)Nc2ccccc21 (configuration not stated)
83 | 104 to 106 °C | CC(Br)C(=O)c1cc2c(Cl)cccc2s1 (configuration not stated)
84 | 125 to 126 °C | O=C1c2ccccc2C(=O)N1CCN1CCN(C(c2ccc(F)cc2)c2ccc(F)cc2)CC1

Row | melting point | SMILES
85 | 220 to 221 °C | O=C(O)CCCCN1CCN(C2=Nc3ccccc3Sc3ccc(Cl)cc32)CC1
86 | 128 to 130 °C | CCOC(=O)CCn1cc(CN(C)C)n(C2CCc3ccccc3C2)c1=S (configuration not stated)
87 | 123 to 124 °C | Cn1ccnc1Sc1c(N)cccc1Cl
88 | 183 to 185 °C | CNC(=O)[C@@H](C[C@H](O)[C@H](CC1CCCCC1)NC(=O)[C@H](Cc1cscn1)NC(=O)OC(C)(C)C)C(C)C
89 | 149 to 151 °C | CC1(C)SC(C)(C)C1C(=O)O
90 | 195 to 197 °C | CC(C)(O)Cn1c(CON=C2CCCC2)nc2c(N)nc3cccnc3c21
91 | 263 to 264 °C | Oc1cc(O)cc(CN/C=C2\CN=Cc3ccc(Br)cc32)c1
92 | 173 to 174 °C | O=C(O)CCc1conc1-c1ccc(C(F)(F)F)cc1
93 | 221 to 222 °C | Cc1nc(-c2ccccc2N)[nH]c1-c1cccnc1
94 | 229 to 232 °C | COCc1nnc(NCCCN2CC3CCC(CC3)C2)c2cc3ccccn3c12
95 | 108 °C | Nc1cccc(CCN2CCN(c3nsc4ccccc34)CC2)c1
96 | 108 to 110 °C | CCOC(=O)c1c(C)nc2c(c1N)c1c(n2Cc2ccc(OC)cc2)CCCC1
97 | 93 to 95 °C | O=C(c1ccc(F)cn1)N1CCC[C@H](c2noc(-c3ccc(F)cc3)n2)C1
98 | 124 to 125 °C | O=C(CCc1ccccc1)N[C@H](Cc1ccc(C(F)(F)F)cc1)[C@@H](O)c1ccccc1F (racemic)
99 | 89 °C | CC1CCN(c2ccc(N)cc2C(O)c2ccc(Cl)cc2)CC1 (configuration not stated)
100 | 154 to 155 °C | O=C(NCCn1cc(C(=O)OCc2ccccc2)ccc1=O)c1cccnc1
101 | 182 to 184 °C | Fc1cc(F)c2c(c1)C[C@@H](n1c(CN3CCOCC3)c[nH]c1=S)CC2
102 | 154 to 155 °C | O=c1[nH]c(=O)n(CCCCBr)c2nccnc12
